Experimental data taken from ChEMBL document CHEMBL1136689, “Inhibition of telomerase by BIBR 1532 and related analogues” (Bioorg Med Chem Lett, 2003).

Assays:
[1] = molecular target: T1, Telomerase reverse transcriptase (Homo sapiens, UniProt O14746); assay: Inhibitory activity against telomerase; ND: Not detected concentrations as high as 50 uM
[2] = molecular target: T1, Telomerase reverse transcriptase; assay: Inhibitory activity against telomerase; ND: not detected concentrations as high as 50 uM
[3] = molecular target: T1, Telomerase reverse transcriptase; assay: Inhibitory activity against telomerase

T1 sequence (O14746 whole entry): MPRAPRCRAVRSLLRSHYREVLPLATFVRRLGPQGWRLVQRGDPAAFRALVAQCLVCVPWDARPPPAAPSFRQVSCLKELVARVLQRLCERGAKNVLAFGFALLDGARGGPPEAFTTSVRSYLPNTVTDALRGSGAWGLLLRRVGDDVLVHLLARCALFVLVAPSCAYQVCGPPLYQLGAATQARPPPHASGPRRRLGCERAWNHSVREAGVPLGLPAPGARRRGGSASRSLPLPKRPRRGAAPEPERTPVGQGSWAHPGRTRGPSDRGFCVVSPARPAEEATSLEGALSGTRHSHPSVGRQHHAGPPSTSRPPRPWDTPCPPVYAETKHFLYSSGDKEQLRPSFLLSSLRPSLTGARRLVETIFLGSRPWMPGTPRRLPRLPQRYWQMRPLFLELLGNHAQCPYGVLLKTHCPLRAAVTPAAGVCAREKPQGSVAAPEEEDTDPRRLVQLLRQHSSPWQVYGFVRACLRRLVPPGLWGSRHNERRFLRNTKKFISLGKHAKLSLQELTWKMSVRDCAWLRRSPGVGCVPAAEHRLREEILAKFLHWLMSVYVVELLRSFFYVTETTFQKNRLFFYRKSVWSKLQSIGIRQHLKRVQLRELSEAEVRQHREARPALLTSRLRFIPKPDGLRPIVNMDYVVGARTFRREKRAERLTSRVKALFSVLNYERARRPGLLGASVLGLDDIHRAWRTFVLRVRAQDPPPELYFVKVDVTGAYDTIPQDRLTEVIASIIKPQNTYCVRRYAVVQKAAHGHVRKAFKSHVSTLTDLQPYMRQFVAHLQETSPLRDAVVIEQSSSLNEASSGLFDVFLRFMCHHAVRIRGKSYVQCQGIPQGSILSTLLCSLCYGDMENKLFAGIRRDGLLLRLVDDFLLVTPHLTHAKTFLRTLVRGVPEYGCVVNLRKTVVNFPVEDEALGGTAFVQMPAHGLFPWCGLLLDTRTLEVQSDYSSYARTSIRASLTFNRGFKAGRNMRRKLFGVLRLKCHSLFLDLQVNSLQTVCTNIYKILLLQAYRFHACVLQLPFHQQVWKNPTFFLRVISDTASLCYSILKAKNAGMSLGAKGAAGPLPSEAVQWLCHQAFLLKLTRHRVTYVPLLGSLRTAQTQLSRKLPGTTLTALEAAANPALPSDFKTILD

## C/C(=C(/Cl)C(=O)Nc1ccccc1C(=O)O)c1ccc2ccccc2c1
[1]
  IC50: Inhibition not detected

## CC(/C=C(\Cl)C(=O)Nc1ccccc1C(=O)O)c1ccccc1 (configuration not stated)
[2]
  IC50: Inhibition not detected

## C/C(=C\C(=O)Nc1ccccc1C(=O)O)c1ccc2ccccc2c1
[3]
  IC50: 5 µM

## COc1cc(CCC(=O)Nc2ccccc2C(=O)O)ccc1O
[1]
  IC50: Inhibition not detected

## COc1cc(/C=C(\Cl)C(=O)Nc2ccccc2C(=O)O)ccc1OCc1ccccc1
[1]
  IC50: Inhibition not detected

## CC(CC(=O)Nc1ccccc1C(=O)O)c1ccc2ccccc2c1 (configuration not stated)
[1]
  IC50: Inhibition not detected

## C/C(=C/C(=O)Nc1ccccc1C(=O)O)c1ccc2ccccc2c1
[3]
  IC50: 5 µM
